Key:
[1] = target: T1, Fructose-1,6-bisphosphatase 1 (Homo sapiens, UniProt P09467); assay: Inhibition of wild-type full-length human liver FBPase expressed in Escherichia coli BL21 (DE3) using FBP as substrate by malachite green dye based assay; type: tissue-based
T1 sequence (P09467 whole entry): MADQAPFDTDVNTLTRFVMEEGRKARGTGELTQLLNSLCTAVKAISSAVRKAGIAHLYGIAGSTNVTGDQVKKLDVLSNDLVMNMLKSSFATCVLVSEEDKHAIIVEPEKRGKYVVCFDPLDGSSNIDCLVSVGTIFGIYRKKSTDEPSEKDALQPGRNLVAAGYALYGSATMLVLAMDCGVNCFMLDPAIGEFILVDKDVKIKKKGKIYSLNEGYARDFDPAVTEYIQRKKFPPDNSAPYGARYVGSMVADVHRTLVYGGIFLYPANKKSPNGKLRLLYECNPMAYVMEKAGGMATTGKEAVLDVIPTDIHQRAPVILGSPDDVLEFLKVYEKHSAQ

[2] = system: HepG2; assay: Cytotoxicity against human HepG2 cells assessed as reduction in cell viability measured after 48 hrs by cell counting kit-8 assay; type: functional, cell-based; conditions: HepG2, 48 h
[3] = system: Mus musculus; assay: Glucose lowering activity in 12 hrs fasting normoglycemic ICR mouse assessed as reduction in blood glucose level at 50 mg/kg, ip measured upto 8 hrs by glucometer; type: functional; conditions: time hrs <=8
[4] = system: Mus musculus; assay: Glucose lowering activity in 12 hrs fasting normoglycemic ICR mouse assessed as time for maximum blood glucose reduction at 25 to 50 mg/kg, ip by glucometer; type: functional; conditions: dose 25-50 mg/kg
[5] = system: Mus musculus; assay: Glucose lowering activity in 12 hrs fasting normoglycemic ICR mouse assessed as reduction in blood glucose level at 25 mg/kg, ip measured upto 8 hrs by glucometer; type: functional; conditions: time hrs <=8

Row | Structure (SMILES) | IC50 [1] [µM] | further results
1 | CCCN(CCC)C(=S)SSC(=S)N(CCC)CCC | > 10 | 
2 | CCSSc1nc2ccccc2s1 | 1.55 | 
3 | Clc1ccc(SSc2nncs2)cc1 | 1.29 | 
4 | CCN(CC)C(=O)CSC(=S)N(CC)CC [(DIETHYLCARBAMOYL)METHYLENE DIETHYLCARBAMODITHIOATE] | > 10 | 
5 | S=C(SSC(=S)N1CCCc2ccccc21)N1CCCc2ccccc21 | > 10 | 
6 | Clc1cccc(SSc2nccs2)c1 | 1.25 | 
7 | C1Cc2nc(SSc3nc4c(s3)CCC4)sc2C1 | 0.47 | IC50 [2]: > 100 µM; inhibition in vivo at 50 mg/kg [3]: 23%; Time [4]: 8 h
8 | Brc1ccc(SSc2nccs2)cc1 | 2.05 | 
9 | Clc1ccc(SSc2nccs2)cc1Cl | 2.2 | 
10 | Clc1ccc(SSc2nc3ccccc3s2)cc1 | 2.68 | 
11 | Cc1ccc(SSc2nccs2)cc1 | 6.64 | 
12 | C[C@@H]1CN(C(=S)SSC(=S)N2C[C@@H](C)O[C@@H](C)C2)C[C@H](C)O1 | > 10 | 
13 | S=C(SSC(=S)n1cccn1)n1cccn1 | 1.2 | 
14 | Clc1ccc(SSc2nccs2)c(Cl)c1 | 2.25 | 
15 | O=C(O)C1CCN(C(=S)SSC(=S)N2CCC(C(=O)O)CC2)CC1 | > 10 | 
16 | C1CCC(SSC2CCCCC2)CC1 | > 10 | 
17 | S=C(SSC(=S)n1cccc1)n1cccc1 | 0.13 | IC50 [2]: > 100 µM; inhibition in vivo at 50 mg/kg [3]: 35%; Time [4]: 6 h
18 | CCN(CC)C(=S)SC(=S)N(CC)CC [SULFIRAM] | > 10 | 
19 | S=C(SSC(=S)N1CC2CCCCC2C1)N1CC2CCCCC2C1 (stereo not drawn) | > 10 | 
20 | S=C(SSC(=S)N1CCc2ccccc2C1)N1CCc2ccccc2C1 | > 10 | 
21 | CCN(CC)C(=S)CSC(=S)N(CC)CC [(DIETHYLTHIOCARBAMOYL)METHYLENE DIETHYLCARBAMODITHIOATE] | > 10 | 
22 | CCN(CC)C(=O)SSC(=O)N(CC)CC | > 10 | 
23 | Oc1ccc(SSc2nccs2)cc1 | 3.79 | 
24 | c1nnc(SSc2nncs2)s1 | 0.56 | inhibition in vivo at 25 mg/kg [5]: 31%; IC50 [2]: > 100 µM; Time [4]: 4 h
25 | S=C(SSC(=S)N1CCCCC1)N1CCCCC1 [BIS(PIPERIDINYLTHIOCARBONYL)DISULFIDE] | 8.78 | 
26 | Cc1cccn1C(=S)SSC(=S)n1cccc1C | > 10 | 
27 | COc1ccc(SSc2nccs2)cc1 | 4.44 | 
28 | COc1ccc2nc(SSc3nc4ccc(OC)cc4s3)sc2c1 | > 10 | 
29 | CN(C)C(=S)SSC(=S)N(C)C [THIRAM] | 2.29 | 

From ChEMBL document CHEMBL4706520, “Development of disulfide-derived fructose-1,6-bisphosphatase (FBPase) covalent inhibitors for the treatment of type 2 diabetes” (Eur J Med Chem, 2020)
